What was measured:
[1] = system: MPO activity; assay: Irritant contact dermatitis (PMA) in vivo FRI; set-up: species or system mouse; details: wildtype mice
Method: Female C57Bl/6J (wildtype, Jackson laboratories, Bar Harbor, Me.) and MPO-knockout (KO, Jackson laboratories) mice were treated topically with 0.08 μmol Phorbol 12-myristate 13-acetate (PMA, Sigma, St. Louis, Mo.) on one hind-paw and with vehicle on the other to induce irritant contact dermatitis. This model is well described in the literature and triggers rapid inflammation with influx of neutrophils into the skin. 6 hours after induction, mice were injected intravenously with either 2 nmol of Compound 3 or the non-specific analogue, Compound 18. 1 hour later, 2.5 μg SA-647 was injected intravenously to bind to the biotinylated Compound 3. Mice underwent in vivo imaging using a dedicated in vivo FRI system as described above in Example 11.

[2] = target: T1, MPO (Mus musculus, UniProt P11247); assay: CFA paw inflammation PET imaging and treatment by MPO inhibitor PF-1355; type: in vivo; set-up: from tissue; host or cells: inflamed forepaw of living mice (CFA)
T1 sequence (P11247 139-718): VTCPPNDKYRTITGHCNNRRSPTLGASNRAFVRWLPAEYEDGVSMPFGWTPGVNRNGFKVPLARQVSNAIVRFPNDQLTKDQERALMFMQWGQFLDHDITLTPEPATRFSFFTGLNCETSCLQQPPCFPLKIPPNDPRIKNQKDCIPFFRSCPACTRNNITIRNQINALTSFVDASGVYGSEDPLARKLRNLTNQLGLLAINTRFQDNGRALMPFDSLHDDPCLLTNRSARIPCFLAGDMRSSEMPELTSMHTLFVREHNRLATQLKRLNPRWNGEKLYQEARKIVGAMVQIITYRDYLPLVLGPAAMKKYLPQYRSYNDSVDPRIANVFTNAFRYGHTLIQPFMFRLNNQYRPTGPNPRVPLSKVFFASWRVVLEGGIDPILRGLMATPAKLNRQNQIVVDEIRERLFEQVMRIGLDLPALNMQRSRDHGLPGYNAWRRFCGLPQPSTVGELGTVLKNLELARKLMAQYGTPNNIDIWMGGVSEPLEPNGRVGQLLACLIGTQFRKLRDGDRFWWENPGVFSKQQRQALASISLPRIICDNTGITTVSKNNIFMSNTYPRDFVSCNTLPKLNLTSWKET
Method: Each pair contained one treated and one untreated, number of pairs, n=3. The 1/1 emulsion of CFA/PBS (40 μL) was injected subcutaneously on the dorsal side of one forepaw under isoflurane anesthesia, and PBS (40 μL) was injected on the other forepaw as control. After 1 h, the treated group was given PF-1355 (50 mg/kg) by gavage, then treated every 6 h for another 3 times, and the control group was treated with vehicle (10 mL/kg) accordingly. After 24 h, 300-600 uCi of Compound 9 was injected intravenously. After another 2 h, each pair of the mice was scanned side by side.
After validating the efficacy of the MPO Compound 9 in matrigel experiments, the specificity of the agent in inflammation was investigated. Complete Freund's Adjuvant (CFA) or its emulsion can cause inflammation when injected subcutaneously to the animal. The CFA emulsion was injected to one dorsal side of the forepaw of the mouse and the other side was injected with PBS. After 24 h, Compound 9 was injected intravenously and scanned 2 h after injection. […] To further verify the specificity of the MPO Compound 9, the mice were treated with MPO inhibitor PF-1355 1 h after CFA emulsion injection and continuously every 6 h afterwards for 4 times before injecting the Compound 9. The control group was treated with vehicle after CFA injection. Then each pair of the mice from treated and untreated groups were scanned.

[3] = target: T2, MPO (Homo sapiens, UniProt P05164); assay: MPO-PET matrigel implantation imaging in mice; type: in vivo, mouse; details: for Background, organ uptake and defluorination: matrigel PET imaging in mice
T2 sequence (P05164 49-745): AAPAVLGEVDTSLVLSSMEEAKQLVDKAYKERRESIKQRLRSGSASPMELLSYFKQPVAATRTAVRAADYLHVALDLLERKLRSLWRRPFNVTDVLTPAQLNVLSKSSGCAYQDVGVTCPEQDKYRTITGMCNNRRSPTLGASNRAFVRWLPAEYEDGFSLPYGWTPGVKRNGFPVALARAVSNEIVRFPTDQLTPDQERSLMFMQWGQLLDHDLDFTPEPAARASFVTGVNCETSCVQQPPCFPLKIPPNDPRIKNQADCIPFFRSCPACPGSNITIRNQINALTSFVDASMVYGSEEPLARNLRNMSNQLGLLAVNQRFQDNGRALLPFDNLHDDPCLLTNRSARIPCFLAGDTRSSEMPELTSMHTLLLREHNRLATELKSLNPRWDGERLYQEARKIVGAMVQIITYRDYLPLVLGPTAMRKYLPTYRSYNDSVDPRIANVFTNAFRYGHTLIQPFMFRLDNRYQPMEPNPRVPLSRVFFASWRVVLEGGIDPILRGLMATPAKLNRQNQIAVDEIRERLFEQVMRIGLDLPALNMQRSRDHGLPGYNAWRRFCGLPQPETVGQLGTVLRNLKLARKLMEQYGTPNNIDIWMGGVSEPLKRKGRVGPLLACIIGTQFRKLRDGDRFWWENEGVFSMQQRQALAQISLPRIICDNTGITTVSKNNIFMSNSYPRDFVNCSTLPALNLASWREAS
Method: 300 μL of 1:1 mixture of matrigel and minimal essential medium (MEM) containing GOX and/or different concentrations of MPO (0, 15 μL, 30 μL) was injected subcutaneously into the ventral aspect of the thighs of the mouse. After 30 min, 300-600 μCi of MPO Compound 9 was injected intravenously. After 2 h, the mice were scanned using PET scanning.
To validate the efficacy of the MPO PET agents for in vivo applications, matrigel implantation experiments were performed by embedding MPO in matrigel along with glucose oxidase (GOX) as H2O2 donor. Matrigel is a gelatinous protein mixture that is liquid at 0° C. but forms a gel at body temperature while remaining diffusible to molecules from the bloodstream when injected into living animals (see e.g., Chen et al, Radiology, 2006, 240(2):473-481). The MPO/matrigel mixtures were injected subcutaneously to the thighs of the mice followed by injection of the MPO PET tracers 30 min later. […] The signal of MPO side was around 1.7 fold higher compared to that of control side.
To verify the specificity of Compound 9 over MPO, different concentrations of MPO (0, 15 μL, 30 μL) were embedded in matrigel for the implantation experiments.

## O=C(CCCC[C@@H]1SC[C@@H]2NC(=O)N[C@@H]21)N[C@@H](Cc1c[nH]c2ccccc12)C(=O)NCCc1c[nH]c2ccccc12 [Compound 18, N—((S)-1-((2-(1H-indol-3-yl)ethyl)amino)-3-(1H-indol-3-yl)-1-oxopropan-2-yl)-5-((3aS,4S,6aR)-2-oxohexahydro-1H-thieno[3,4-d]imidazol-4-yl)pentanamide]
[1]
  Fluorescence intensity, PMA-treated hind-paw: 50.1±5.8 RFU
  Fluorescence intensity, vehicle-treated hind-paw: 28.4±5.5 RFU

## COc1ccc(OC)c(-c2cc(=O)[nH]c(=S)n2CC(N)=O)c1 [PF-1355]
[2]; mean of three pairs
  Ratio of PF-1355 treated to untreated: .410
[2]; mean of three pairs, PF-1355 50 mg/kg by gavage, Compound 9 PET
  % Inhibition: 59%
[2]; mean of three pairs, PF-1355 50 mg/kg by gavage
  Compound 9 uptake in inflamed paw, PF-1355 treated: .0622 SUV
[2]; mouse pair 1, PF-1355 50 mg/kg by gavage
  Compound 9 uptake in inflamed paw, PF-1355 treated: .0555 SUV
[2]; mouse pair 2, PF-1355 50 mg/kg by gavage
  Compound 9 uptake in inflamed paw, PF-1355 treated: .0736 SUV
[2]; mouse pair 3, PF-1355 50 mg/kg by gavage
  Compound 9 uptake in inflamed paw, PF-1355 treated: .0575 SUV

## O=C(NC(Cc1c[nH]c2ccc(O)cc12)C(=O)NCCc1c[nH]c2ccc(O)cc12)c1ccc([18F])cc1 (centres unmarked) [Compound 7]
[3]; matrigel MPO thigh vs control thigh
  PET signal of MPO side: low signal
[3]
  Background, organ uptake and defluorination: high heart uptake

## O=C(Cc1c[nH]c2ccc(O)cc12)NC(Cc1c[nH]c2ccc(O)cc12)C(=O)NCCCCCC[18F] (centres unmarked) [Compound 5]
[3]
  Background, organ uptake and defluorination: high heart and liver uptake and high background were observed from defluorination

Source: patent US12570606B2, “Myeloperoxidase imaging agents” (The General Hospital Corporation, priority 2016, dated 2026)
